Laboratory results from PMC6624297 (Cell Death & Disease, 2019).

What was measured:
[1] = system: P53, caspase-3, bcl-2/bax, cleaved caspase-3; experiment: Western blot apoptotic proteins, A549; assay type: cell-based, human; settings: A549, 0.5, 1.0, 1.5 μM, 24 h
Experimental: (§1) A549 cells, H460 cells and HUVECs were treated with different concentrations of compound L14e for 24 h. Primary antibodies (100 μL/cm^2): P53(10442-1-AP, Proteintech Group),caspase-3 (19677-1-AP, Proteintech Group), bax (50599-2-lg, Proteintech Group), bcl-2 (12789-1-AP, Proteintech Group), cleaved caspase-3 (25546-1-AP, Proteintech Group), β-actin (60008-1-lg, Proteintech Group), EGFR (ab21074, Abcam), AKT (#2920, Cell Signaling Technology), ERK1/2 (#4370, Cell Signaling Technology), VEGFR-2 (#9698, Cell Signaling Technology), p-EGFR (ab40815, Abcam), p-AKT (#4060, Cell Signaling Technology), p-ERK1/2 (#4695, Cell Signaling Technology), p-VEGFR-2 (#3770, Cell Signaling Technology), and GAPDH (ab181603, Abcam). The cellular levels of proteins were determined by standard Western blotting. Details were given in Supplementary Materials and Methods.
(§2) A549 cells, H460 cells and HUVECs were treated with different concentrations of compound L14e for 24 h, and collected to establish their respective treatment groups. […]
(§3) Extracted proteins were separated from each other using polyacrylamide electrophoresis on a 10 % gel (Beyotime Biotechnology Company, Shanghai, China) and transferred to a polyvinylidene fluoride (PVDF) membrane. […] Gray values of protein bands were quantitatively analyzed, with the gray value of β-actin(GAPDH) band as the reference.

LO2 cell line = experiment: Selectivity index against LO2; assay type: cell-based; settings: SI = CC50/IC50
HepG2 cells = experiment: MTT assay HepG2; assay type: cell-based; settings: Homo sapiens, 24h of treatment, mean ± SD
Experimental: (§4) Details are given in Supplementary Materials and Methods. Using probability unit and weighted regression method to calculate the IC50 value of compounds.
(§5) Total cells in the logarithmic growth phase were collected, digested using 0.25% pancreatic enzymes, and then diluted into single-cell suspensions using phosphate-buffered solution (PBS). These cells were seeded into 96-well plates at 4× 10^3-5× 10^3 cells per well (100 µL per well) and then A549, H460, OVCAR-3, SGC7901, MDA-MB-231, HCT116 and HepG2 were cultured at 37°Cin an incubator containing 5% CO2. After cell complete attachment, 100 µL of different concentrations of compounds (0.625 μM, 1.25 μM, 2.5μM, 5 μM, 10 μM) were added to the cells after the nutrient solution in each well was discarded, while no compound except 0.1% DMSO was added to cells in the control group; at the same time, each concentration was set up to 5 wells. In addition, 5 wells in each 96-well plate only received 100 µL of nutrient solution as a blank control. The plates were taken out after the cells were incubated with compounds for 24 h, and 20 µL of MTT solution (5 mg/mL) (Wuhan Boster Biotechnology Limited Company, Wuhan, China; item No. AR1156) was added into all the wells. After another time of incubation for 4 h at 37 °C, the nutrient solution in each well was discarded slowly, and 150 µL of DMSO was added to each well. The plates were shaken on a shaking table for 20 min. When the crystals were fully dissolved, the blank wells were used to zero the plate reader. The optical density (OD) of each well was detected at 490 nm. The IC50 value was determined as the concentration of the inhibitor that caused 50% inhibition. Using probability unit and weighted regression method to calculate the IC50 value of compounds.

MDA-MB-231 cells = experiment: MTT assay MDA-MB-231; assay type: cell-based; settings: Homo sapiens, 24h of treatment, mean ± SD
Experimental: as §4, §5

p-EGFR, p-AKT, p-ERK1/2 = experiment: Western blot EGFR signaling pathway, H460; assay type: cell-based, human; settings: H460, 0.5, 1.0, 1.5 μM, 24 h, EGF 50 ng/ml
Experimental: as §1, §2, §3

HPAEpiC cell line = experiment: Selectivity index against HPAEpiC; assay type: cell-based; settings: SI = CC50/IC50
FVB mice = experiment: Toxicity test in FVB mice; assay type: in vivo; settings: 3 weeks
Experimental: Blood was collected from euthanized mice under isoflurane-induced deep anesthesia by cardiac puncture. After allowing blood coagulation at 4 °C, serum was collected by centrifugation at 3000 rpm for 10 min at 4 °C. Analysis of the level of ALT, AST, Glu and CRE in the serum was performed using a veterinary hematology analyzer (Fuji DRI-Chem 3500 s, Fujifilm, Tokyo, Japan) according to the manufacturer’s provided protocols. The histopathological changes in liver, lung, brain, and kidney were evaluated by using HE-stained section of the tissues (This part of the results is in the supplementary document).
Tissues were fixed in 10% neutral-buffered formalin for 24 h, embedded in paraffin, cut into 4-μm-thick sections, deparaffinized with xylene and processed with a graded ethanol series. Next, the sections were stained with HE and were observed using Eclipse Ts2 microscope (Nikon).

For `O=C(Nc1cccc(Cl)c1)Nc1ccccc1NS(=O)(=O)c1c[nH]c(=O)[nH]c1=O` [Compound L14e, N'-(3-chlorophenyl)-2-(2,4-dihydroxypyrimidine-5-sulfonamido)phenyl urea], the “expression of P53, bax, bcl-2, cleaved caspase-3” value [1] was “over expression of P53, up-regulation of bax and down-regulation of bcl-2”, the “SI (Selectivity index) LO2” value (LO2 cell line) was 12.58 and the IC50 (HepG2 cells) was 1360 ± 130 nM. The IC50 (MDA-MB-231 cells) was 2600 ± 80 nM, the “expression of phosphorylated EGFR (Tyr1068) and AKT (Ser473)” value (p-EGFR, p-AKT, p-ERK1/2) was “significantly reduced” and the “SI (Selectivity index) HPAEpiC” value (HPAEpiC cell line) was 19.79. The “changes in body weight compared with control mice” value (FVB mice; FVB mice, 40, 80, 160 mg/kg) was “minimal”, the “serum levels of AST, ALT, GLU and creatinine” value (FVB mice; FVB mice, 40, 80, 160 mg/kg) was “within the reference ranges” and the “toxicity to mice (overall)” value (FVB mice; FVB mice, 40, 80, 160 mg/kg) was “minimal toxicity”. For the same compound, the “histopathological changes in liver, lung, brain, and kidney (HE staining)” value (FVB mice; mice) was “no visible pathological changes”.
